Reference: patent US20070037785A1, “Novel dipeptidyl peptidase IV inhibitors used for functionally influencing different cells and treating immunological, infammatory, neuronal, and other diseases” (priority 2003, published 2007)

Each compound was assayed against dipeptidyl peptidase IV (Homo sapiens, UniProt P27487) (assay: biochemical). Settings: values marked with "*" are ID50 values; read-out: IC50DPIV, values marked with "*" = ID50.
Sequence of dipeptidyl peptidase IV (P27487 whole entry, species assumed): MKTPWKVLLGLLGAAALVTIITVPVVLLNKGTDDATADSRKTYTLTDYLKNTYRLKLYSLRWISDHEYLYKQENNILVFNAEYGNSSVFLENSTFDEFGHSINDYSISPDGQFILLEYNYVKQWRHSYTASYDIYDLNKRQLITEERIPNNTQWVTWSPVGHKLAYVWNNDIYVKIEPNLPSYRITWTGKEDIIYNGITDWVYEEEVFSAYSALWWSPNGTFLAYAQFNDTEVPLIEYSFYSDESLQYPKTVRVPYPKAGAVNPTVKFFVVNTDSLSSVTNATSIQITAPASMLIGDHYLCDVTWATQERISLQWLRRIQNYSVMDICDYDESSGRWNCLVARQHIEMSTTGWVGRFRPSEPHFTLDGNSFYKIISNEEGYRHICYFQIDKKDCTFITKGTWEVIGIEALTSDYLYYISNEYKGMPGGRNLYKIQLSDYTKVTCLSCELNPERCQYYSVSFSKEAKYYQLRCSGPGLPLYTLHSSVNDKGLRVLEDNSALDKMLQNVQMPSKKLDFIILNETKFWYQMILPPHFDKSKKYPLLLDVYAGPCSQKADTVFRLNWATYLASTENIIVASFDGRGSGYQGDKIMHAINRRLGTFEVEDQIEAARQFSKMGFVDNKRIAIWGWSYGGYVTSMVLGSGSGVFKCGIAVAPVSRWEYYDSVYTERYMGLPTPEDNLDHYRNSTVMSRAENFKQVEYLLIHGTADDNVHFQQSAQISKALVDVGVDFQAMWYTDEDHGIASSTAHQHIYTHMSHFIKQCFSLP

Row | IC50 [µM] | SMILES
1 | 252 | C=CCOC(=O)C1=CS(=O)(=O)c2ccccc21 [D3.105]
2 | 208 | C/C(=N\NC(=O)CNC(=O)c1ccc(Cl)cc1)c1ccc2ccccc2c1 [D10.122]
3 | 417 | Nc1nc2ccc(S(=O)(=O)c3ccc4nc(N)sc4c3)cc2s1 [D3.118]
4 | 69.8 | CCOC(=O)c1c(CNC(=O)CN2CCN(c3nc4c([nH]3)c(=O)[nH]c(=O)n4C)CC2)[nH]c2ccc(F)cc12 [D5.043]
5 | 231 | CN(Cc1ccccc1)c1ccc(N2C(=O)CCCC2=O)cc1[N+](=O)[O-] [D4.101]
6 | 2 | COc1cc(/C=N/NC(=O)c2cc(O)c(O)c(O)c2)cc(Br)c1OCc1ccccc1Cl [D10.002]
7 | 71.3 | CC(=O)Nc1ccc(Nc2ccc(N3C(=O)CCCC3=O)cc2[N+](=O)[O-])cc1 [D4.079]
8 | 257 | Cc1ccc(OCC(=O)N/N=C/c2ccccc2OC(=O)c2ccc([N+](=O)[O-])cc2)cc1 [D10.131]
9 | 1.2 | CN(C)c1ccc(N2CC(C)(C)C2=O)cc1 [D1.001]
10 | 172 | CC(C)c1ccc(N2CC(C(=O)Nc3ccc(Br)cc3Br)CC2=O)cc1 (stereo not shown) [D4.096]

Same assay, conditions: values without "*" = IC-50; read-out: IC50DPIV

Row | IC50 [µM] | SMILES
11 | 30.8 | CCCn1c(N2CCN(CC(=O)c3c[nH]c4ccccc34)CC2)nc2c1c(=O)[nH]c(=O)n2C [D6.046]
12 | 16.7 | O=C(N/N=C/c1ccc(OC(=O)c2ccco2)c([N+](=O)[O-])c1)/C(=C\c1cccs1)NC(=O)c1ccccc1 [D10.028]
13 | 101 | CC(C)(C)C1CCc2c(sc(NC(=O)C(C(F)(F)F)C(F)(F)F)c2C#N)C1 (stereo not shown) [D3.092]
14 | 92.5 | NCc1ccccc1-n1cccc1 [D4.085]
15 | 7.4 | N#CC1=C(N)C(C#N)(C#N)C(c2ccccc2F)C2CNCC=C12 (stereo not shown) [D4.009]
16 | 63.5 | COc1cc(/C=N/NC(=O)CNC(=O)c2cccc(F)c2)ccc1OC(=O)c1ccccc1Cl [D10.093]
17 | 43.8 | CCc1c(C)[nH]c2c1/C(=N/OC(=O)C(C)C)CCC2 [D11.010]
18 | 16.2 | CCOc1cc(/C=N/NC(=O)c2cc(C)oc2C)ccc1O [D10.025]
19 | 17.9 | CCOC(=O)n1ccc(C(=O)Nc2ccccc2F)n1 [D6.026]
20 | 12.3 | COc1ccccc1/C=N/NC(=O)c1cccc([N+](=O)[O-])c1 [D10.017]
21 | 15.4 | COC(=O)C(CC(C)C)Nc1ccc(N2C(=O)CCCC2=O)cc1[N+](=O)[O-] (stereo not shown) [D4.021]
22 | 46.2 | COc1cc(/C=N/NC(=O)/C(=C/c2ccc(N(C)C)cc2)NC(=O)c2ccccc2)cc(Br)c1O [D10.070]
23 | 33.4 | C/C(=N\NC(=O)/C(=C\c1ccc(F)cc1)NC(=O)c1ccccc1)c1ccccc1O [D10.055]
24 | 30 | Cc1[nH]c2ccccc2c1/C=N/OC(=O)C1CC1 [D11.008]
25 | 10 | Nc1nonc1-n1nnc(C(=O)NN=C2c3ccccc3-c3ccccc32)c1-c1ccccc1 [D10.012]
26 | 80.6 | CSc1nc2sc3c(c2c(=O)n1-c1cccc(C)c1)CC(C)(C)OC3 [D3.088]
27 | 20.4 | CN(C)c1ccc(C2C=C(Nc3ccccc3)C(=O)N2c2ccccc2)cc1 (stereo not shown) [D12.006]
28 | 55.3 | CCOc1cccc(/C=N/NC(=O)c2cc(-c3ccc(F)cc3)n[nH]2)c1O [D10.078]
29 | 9.9 | CC(=O)N(C(C)=O)c1nc(-c2ccccc2)cn1/N=C/c1ccccc1 [D10.011]
30 | 56.3 | CCOc1ccc(/C=N/NC(=O)c2cc(-c3c(OC)ccc4ccccc34)n[nH]2)cc1 [D3.100]
31 | 14 | Cc1csc(/C(=N\OC(=O)c2ccc(Br)o2)C(N)=O)n1 [D11.003]
32 | 23.6 | N#C/C(=C\c1ccc(N2CCCCC2)c([N+](=O)[O-])c1)c1nn(CCO)c(N)c1C#N [D4.032]

Row | IC50 [µM] | SMILES
33 | 42.7 | N#CC1=C(N)C(C#N)(C#N)C(c2ccccc2)C2CNCC=C12 (stereo not shown) [D3.056]
34 | 56.2 | CCOc1ccc(/C=N/NC(=O)c2cc(-c3c(OC)ccc4ccccc34)n[nH]2)cc1 [D4.068]
35 | 52.3 | O=C(Cn1c2ccccc2c(=O)c2ccccc21)N/N=C/c1cc(I)c(O)c([N+](=O)[O-])c1 [D10.073]
36 | 54.1 | CCOC(=O)c1c(N2C(=O)C3ON(c4ccccc4)C(c4ccc([N+](=O)[O-])cc4)C3C2=O)sc2c1CCCC2 (stereo not shown) [D3.069]
37 | 52.4 | CC(C)C1Cc2c(sc3nc(SCC(=O)c4ccccc4)n(Cc4ccccc4)c(=O)c23)CO1 (stereo not shown) [D3.067]
38 | 28.8 | O=C1CCCC(=O)N1c1ccc(N2CCc3ccccc3C2)c([N+](=O)[O-])c1 [D3.104]
39 | 24.3 | COc1ccc(/C=N/n2c(N(C(C)=O)C(C)=O)nc(-c3ccccc3)c2-c2ccccc2)cc1 [D4.034]
40 | 15.2 | CCCC(=O)O/N=C1\C(=O)N(c2ccccc2)c2ccccc21 [D4.020]
41 | 13.6 | CCOc1cc(/C=N/NC(=O)c2cc(C)n[nH]2)ccc1O [D10.023]
42 | 55.2 | Cc1ccc(Cn2cccc2/C=N/NC(=S)Nc2ccc(C)c(C)c2)cc1 [D6.078]
43 | 37.4 | CCC(=O)Oc1ccc2c(c1)OC1(OC(C)=O)OC(C)CC1=C2C (stereo not shown) [D3.047]
44 | 81.4 | N#Cc1ccc(/C=N/NC(=O)c2cc([N+](=O)[O-])ccc2O)cc1 [D10.098]
45 | 42 | COc1cc(/C=N/NC(=O)CNC(=O)c2ccc(Cl)cc2)ccc1OC(=O)c1cccc(F)c1 [D10.066]
46 | 55.4 | COc1c(O)ccc(/C=N/NC(=O)COc2c(Br)cc(Br)cc2Br)c1[N+](=O)[O-] [D10.079]
47 | 10.1 | Nc1nonc1-n1nnc(C(=O)NN=C2c3ccccc3-c3ccccc32)c1-c1ccccc1 [D6.013]
48 | 45.6 | COc1ccc(Br)cc1/C=N/NC(=O)COc1ccc(C)cc1[N+](=O)[O-] [D10.068]
49 | 12.3 | COc1ccc(/C=N/NC(=O)c2cc(O)c(O)c(O)c2)cc1COc1cc(C)c(Cl)c(C)c1 [D10.016]
50 | 41.2 | CN1CCN(c2nc3c(c(=O)n(C)c(=O)n3C)n2Cc2cccc(F)c2)CC1 [D3.054]
51 | 40.4 | COc1ccc(C(=O)N/N=C/c2ccc(Cl)cc2Cl)cc1 [D10.063]
52 | 10.1 | Nc1nonc1-n1nnc(C(=O)NN=C2c3ccccc3-c3ccccc32)c1-c1ccccc1 [D4.013]
53 | 36.3 | O=C(N/N=C/c1cccc(I)c1)c1cc(Br)ccc1O [D10.060]

Row | SMILES | IC50 [µM]
54 | CC1=C(C#N)C(=O)N=C(O)/C1=C\c1ccc(-c2ccc(Cl)cc2Cl)o1 [D6.101] | 95.8
55 | CCCOC(=O)c1cc(-c2ccc(/C=C3\C(=O)N(CCCO)C(=O)C(C#N)=C3C)o2)ccc1Cl [D4.081] | 76.3
56 | CCN(CC)C(=O)C1CCCN(c2ccc([N+](=O)[O-])cc2/C=N/NC(=O)c2cccc([N+](=O)[O-])c2)C1 (stereo not shown) [D10.075] | 54
57 | O=C(/C=C/c1ccco1)c1ccccc1 [D6.029] | 19.7
58 | Cc1ccc(OCC(=O)N/N=C\c2ccc(O)c([N+](=O)[O-])c2)c([N+](=O)[O-])c1 [D10.030] | 17.8
59 | CCCOC(=O)c1cc(-c2ccc(/C=C3\C(=O)NC(=O)C(C#N)=C3C)o2)ccc1Cl [D12.034] | 65.3
60 | COc1cc(Br)ccc1OCC(=O)N/N=C/c1cc(Br)c(O)c(O)c1Br [D10.067] | 45
61 | COc1cc(Br)c(OCC(=O)N/N=C/c2cc(Br)c(O)c(O)c2Br)c(Br)c1 [D10.046] | 29.2
62 | N#Cc1c(NC(=O)C(C(F)(F)F)C(F)(F)F)sc2c1CCCC2 [D6.058] | 39.5
63 | COc1cc(Br)cc(Br)c1OCC(=O)N/N=C/c1cc(O)c(O)c(Br)c1Br [D10.010] | 9.1
64 | O=C(Nc1cccc(/N=C/c2cc(I)cc(I)c2O)c1)c1ccco1 [D6.010] | 9.2
